One data set deals with T1, human FFAR4 (Homo sapiens, UniProt Q5NUL3).
T1 sequence (Q5NUL3 1-361): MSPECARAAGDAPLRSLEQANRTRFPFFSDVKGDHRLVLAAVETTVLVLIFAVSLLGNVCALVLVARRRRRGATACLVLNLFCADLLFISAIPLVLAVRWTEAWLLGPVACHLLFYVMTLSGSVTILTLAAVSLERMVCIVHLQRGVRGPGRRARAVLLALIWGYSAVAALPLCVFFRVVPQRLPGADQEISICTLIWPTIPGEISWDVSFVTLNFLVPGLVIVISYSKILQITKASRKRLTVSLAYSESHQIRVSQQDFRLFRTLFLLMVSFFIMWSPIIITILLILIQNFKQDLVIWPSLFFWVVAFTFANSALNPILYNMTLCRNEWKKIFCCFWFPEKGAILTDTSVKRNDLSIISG
Nature of the data set: cell-based.

In a further data set the test system is normal ICR mice. Kind of data set: oral glucose tolerance test in normal ICR mice. To be noted: 20 mg/kg by gavage 30 min before glucose 2 g/kg, AUC 0-120 min.
The subject of a further data set is DIO mice. Nature of the data set: anti-hyperglycemic effects (OGTT, insulin) in diet-induced obese (DIO) mice. To be noted: for reduction of blood glucose AUC versus vehicle-treated group: AUC -30 to 120 min. The class given is in vivo, C57BL/6 mice. The procedure: During the experimental period, plasma insulin levels were measured 30 min after glucose administration using an insulin ELISA Kit.
Plasma insulin levels were measured using a mouse insulin RIA kit 30 min after oral glucose loading (Beijing North Institute of Biological Technology, Beijing, China).

A further data set has as its target T2, human FFAR1 (Homo sapiens, UniProt O14842).
T2 construct: expressed in transfected cells; host or cells: CHO cells
Kind of data set: calcium influx assay, hFFAR1 (hGPR40) agonistic activity in transfected CHO cells. The class given is cell-based.

Data set [1] is described as follows: pharmacokinetic study in ICR mice. The class given is in vivo. To be noted: oral 10 mg/kg. How it is done:
The AUC was calculated using the trapezoidal method.
Plasma was collected and precipitated using two volumes of acetonitrile containing an internal standard. This step was followed by centrifugation at 15.680 g for 10 min after vortexing for 5 min. The supernatant was diluted with acetonitrile, and 10 µL of the supernatant was analyzed by Waters LC-PDA-MS/MS to determine plasma drug levels. Pharmacokinetic parameters were determined using mean data from four mice at each time point. Statistical analysis of the data was performed using the DAS 2.1.1 statistical software program (BioVoice, Shanghai, China).

Structures are written as SMILES.

T2 sequence (O14842 whole entry): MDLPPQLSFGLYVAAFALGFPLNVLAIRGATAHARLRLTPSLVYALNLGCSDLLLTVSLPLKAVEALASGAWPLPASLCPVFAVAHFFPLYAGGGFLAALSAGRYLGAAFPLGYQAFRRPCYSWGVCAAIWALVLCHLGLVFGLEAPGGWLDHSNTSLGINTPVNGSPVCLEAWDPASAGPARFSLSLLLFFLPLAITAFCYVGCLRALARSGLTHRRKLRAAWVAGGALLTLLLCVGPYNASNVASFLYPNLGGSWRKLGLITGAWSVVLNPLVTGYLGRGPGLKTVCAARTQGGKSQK
Protocol for normal ICR mice: Compounds (20 mg/kg) or the vehicle was administered by gavage 30 min before glucose administration (2 g/kg). […] The test compounds were dissolved in 0.5% methyl cellulose (MC) and vortexed before the study initiation. […] The exact dose volume was calculated separately for each animal. […] Blood glucose levels were measured using blood glucose test strips (Sannuo GA-3 type; Changsha, China).

As for `Cc1ccc(-c2ccc(F)cc2NC(=O)c2ccc(OCCCCC(=O)O)c(F)c2)cc1` [Compound 12f, 5-(2-fluoro-4-((4-fluoro-4′-methyl-[1,1′-biphenyl]-2-yl)carbamoyl)phenoxy)pentanoic acid], the EC50 at human FFAR4 stood at 0.127 µM.
Take `Cc1ccc(-c2ccc(F)cc2NC(=O)c2ccc(OCCCC(=O)O)c(C)c2)cc1` [Compound 5f, 4-(4-((4-fluoro-4′-methyl-[1,1′-biphenyl]-2-yl)carbamoyl)-2-methylphenoxy)butanoic acid]: the “reduction of blood glucose AUC versus vehicle-treated group” value (shortened to “reduction”) with normal ICR mice was 16.7%. For the same molecule, the EC50 on human FFAR4 came to 0.113 µM.
`Cc1ccc(-c2ccc(F)cc2NC(=O)c2ccc(OCCCCC(=O)O)cc2)cc1` [Compound 3f, 5-(4-((4-fluoro-4′-methyl-[1,1′-biphenyl]-2-yl)carbamoyl)phenoxy)pentanoic acid] came in with an EC50 at human FFAR4 of 0.236 µM.
Turning to `Cc1ccc(-c2ccc(F)cc2NC(=O)c2ccc(OCCCC(=O)O)cc2)cc1` [Compound 2f, 4-(4-((4-fluoro-4′-methyl-[1,1′-biphenyl]-2-yl)carbamoyl)phenoxy)butanoic acid], on human FFAR4, the EC50 worked out at 0.189 µM.
On human FFAR4, `Cc1ccc(-c2ccc(F)cc2NC(=O)c2ccc(OCC(=O)O)cc2)cc1` [Compound 1f, 2-(4-((4-fluoro-4′-methyl-[1,1′-biphenyl]-2-yl)carbamoyl)phenoxy)acetic acid] registered an EC50 of 0.136 µM.
Molecule `Cc1ccc(-c2ccc(F)cc2NC(=O)c2ccc(OCCCCC(=O)O)c(C)c2)cc1` [Compound 6f, 5-(4-((4-fluoro-4′-methyl-[1,1′-biphenyl]-2-yl)carbamoyl)-2-methylphenoxy)pentanoic acid] gave an EC50 at human FFAR4 of 0.218 µM.
Turning to `Cc1ccc(-c2ccc(F)cc2NC(=O)c2ccc(OCC(=O)O)c(F)c2)cc1` [Compound 10f, 2-(2-fluoro-4-((4-fluoro-4′-methyl-[1,1′-biphenyl]-2-yl)carbamoyl)phenoxy)acetic acid], the entries for the “reduction” value with DIO mice (30 mg/kg oral 30 min before glucose 2 g/kg), in the data set on DIO mice (100 mg/kg oral 30 min before glucose 2 g/kg) and in the data set on normal ICR mice were 20.1%, 32.4% and 30.8%, respectively. The hypoglycemic effect entry with DIO mice (doses exceeding 10 mg/kg oral) is given as “significant hypoglycemic activity”; with DIO mice (lower doses 1 mg/kg and 3 mg/kg oral) it was “did not exhibit significant hypoglycemic effects”. Also, the “plasma insulin level versus control group” value with DIO mice (doses greater than 10 mg/kg, 30 min after glucose administration) is listed as “significantly higher”. In addition, the “hypoglycemia during the experiment” value in the data set with DIO mice (doses up to 100 mg/kg oral) is on record as “no hypoglycemia was observed”. Further, the “potency in stimulating FFAR4 over FFAR1 (selectivity)” value on human FFAR1 (FFAR4 versus FFAR1) was “approximately 400 fold”. For the same molecule, the 50% effective concentration (EC50) on human FFAR1 (human FFAR1 transfected CHO cells, calcium influx) came out at 32.9 µM; on human FFAR4, 0.0786 µM. Besides, the Tmax in data set [1] (male, mouse, plasma) is 0.5 h. The molecule further returned an AUC in data set [1] (male, mouse, plasma, 0 to 24 h, mean ± SD of four mice) of 9.83 ± 2.93 µg·h/mL. The highest level in data set [1] (male, mouse, plasma, 0.5% methyl cellulose, mean ± SD of four mice) (Cmax) was 3.14 ± 1.15 µg/mL. Besides, the half-life in data set [1] (male, mouse, plasma, mean ± SD of four mice) was 1.51 ± 0.51 h. The “Cmax relative to TUG-891” value in data set [1] was 2.5 times.
Take `Cc1ccc(-c2ccc(F)cc2NC(=O)c2ccc(OCCCCC(=O)O)cc2C)cc1` [Compound 9f, 5-(4-((4-fluoro-4′-methyl-[1,1′-biphenyl]-2-yl)carbamoyl)-3-methylphenoxy)pentanoic acid]: the concentration giving a half-maximal response (EC50) on human FFAR4 is 0.279 µM.
As for `Cc1ccc(-c2ccc(F)cc2NC(=O)c2ccc(OCCCC(=O)O)c(F)c2)cc1` [Compound 11f, 4-(2-fluoro-4-((4-fluoro-4′-methyl-[1,1′-biphenyl]-2-yl)carbamoyl)phenoxy)butanoic acid], in the data set with normal ICR mice, the “reduction” value turned out to be 20.0%. For the same molecule, a half-maximal response on human FFAR4 (EC50) required 0.0932 µM.
Molecule `Cc1ccc(-c2ccc(F)cc2NC(=O)c2ccc(OCCCC(=O)O)cc2C)cc1` [Compound 8f, 4-(4-((4-fluoro-4′-methyl-[1,1′-biphenyl]-2-yl)carbamoyl)-3-methylphenoxy)butanoic acid] yielded an EC50 on human FFAR4 of 0.246 µM.
For the molecule `Cc1ccc(-c2ccc(F)cc2NC(=O)c2ccc(OCC(=O)O)cc2C)cc1` [Compound 7f, 2-(4-((4-fluoro-4′-methyl-[1,1′-biphenyl]-2-yl)carbamoyl)-3-methylphenoxy)acetic acid], the EC50 at human FFAR4 stood at 0.189 µM.
`Cc1ccc(-c2ccc(F)cc2NC(=O)c2ccc(OCC(=O)O)c(C)c2)cc1` [Compound 4f, 2-(4-((4-fluoro-4′-methyl-[1,1′-biphenyl]-2-yl)carbamoyl)-2-methylphenoxy)acetic acid]: at human FFAR4, the EC50 is 0.145 µM.

Broadly, the EC50 is the midpoint of the concentration-response curve. A word on the Tmax: it is the time at which the peak concentration occurs. As usually defined, the AUC is the area under the concentration-time curve, a measure of exposure. Broadly, the Cmax is the highest concentration seen after dosing. In general, half-life refers to the time needed for the level to fall by half in the phase considered. A low value points to rapid decline.

For the origin of these results see paper PMC11547093, “Novel Phenoxyalkanoic Acid Derivatives as Free Fatty Acid Receptor 4 Agonists for Treating Type 2 Diabetes Mellitus” (International Journal of Molecular Sciences, 2024).
